Assay [1] concerns secretion of the endogenous pulmonary surfactant. As to conditions: Post et al.: Lung 161, 349-359, 1983; cited from earlier work.
In assay [2] the test system is pulmonary surfactant secretion. Briefly: Stimulatory effect on pulmonary surfactant secretion (disaturated phosphatidylcholine in bronchoalveolar lavage fluid). It is filed as in vivo, guinea pig (male Hartley). As to conditions: guinea pigs; for Pharmacological activity: % increase of disaturated phosphatidylcholine (DSPC) compared to control values: 50 mg/kg i.p. once, lavage 3 hours later, number of animals in parentheses, * significantly different from control values (p < 0.05), Compounds A and B not marked *; for stimulation of pulmonary surfactant secretion (in words): conclusion from Table 1, 50 mg/kg i.p. On the procedure:
The stimulatory effect of the compound of the present invention on pulmonary surfactant secretion In the experiment, male Hartley guinea pigs weighing 300-350 g were used. Methods 50 mg/kg of the test compound was intraperitoneally administered to guinea pigs once. Three hours later, the animals were anesthetized with 100 mg/kg of pentobarbital sodium and sacrificed by bleeding from the abdominal aorta and vena cava. Then, bronchoalveolar lavage with 10 ml/kg of ice-cooled physiological saline was performed twice. The combined bronchoalveolar lavage fluid was centrifuged at 1,000 rpm for 10 minutes at 4° C. From the supernatant of bronchoalveolar lavage fluid, the lipid was extracted in accordance with the method of Folch et al. (Journal of Biological Chemistry, 226, 497-502, 1957). The characteristic component of pulmonary surfactant, i.e., disaturated phosphatidylcholine was extracted by the method of Gilfillan et al. (Journal of Lipid Research, 24, 1651- 1656, 1983). The disaturated phosphatidylcholine was assayed with Nescoat PL Kit-K (Nippon Shoji Co., Ltd.) and the percent increase compared to a control group was determined (M. Takayama, et al.: Clin. Chim. Acta, 79, 93-98, 1977).

Where a name gives a salt, the structure may show the parent alone.

Turning to `Nc1c(Br)cc(Br)cc1CN[C@H]1CC[C@H](O)CC1` [ambroxol hydrochloride], the “activity to promote secretion of the endogenous pulmonary surfactant (in words)” value in assay [1] is recorded as “only substance known to have such activity”.
Take `Cl.O=c1[nH]c2ccc(Cl)cc2n1CCN1CCCC1` [19(4), 6-Chloro-1,3-dihydro-1-[2-(1-pyrrolidinyl)ethyl]-2H-benzimidazol-2-one hydrochloride]: the “Pharmacological activity: % increase of disaturated phosphatidylcholine (DSPC) compared to control values” (“Pharmacological activity: % increase” below) in assay [2] turned out to be 33.1 ± 8.3%.
In the case of `CCN(CC)CCn1c(=O)[nH]c2ccccc21` [Compound B, 1,3Dihydro-1-(2-diethylaminoethyl)-2H-benzimidazol-2-one], in assay [2], the “stimulation of pulmonary surfactant secretion (in words)” value is given as “do not stimulate secretion of pulmonary surfactant but rather tend to decrease the secretion” and the “Pharmacological activity: % increase” value was -20.7%.
As to `CN(C)CCn1c(=O)[nH]c2ccccc21.Cl` [Example 12(5), 1,3-dihydro-1-(2-dimethylaminoethyl)-2H-benzimidazol-2-one hydrochloride], in assay [2], the “Pharmacological activity: % increase” value is listed as 27.4 ± 4.9%.
On to `CN(C)CCCn1c(=O)[nH]c2ccccc21` [Compound A, 1,3Dihydro-1-(3-dimethylaminopropyl)-2H-benzimidazol-2-one], for which, in assay [2], the “stimulation of pulmonary surfactant secretion (in words)” value was “do not stimulate secretion of pulmonary surfactant but rather tend to decrease the secretion” and the “Pharmacological activity: % increase” value is given as -9.3%.
For the molecule `CN(C)CCn1c(=O)[nH]c2ccc(Br)cc21.Cl` [3(5), 6-Bromo-1,3-dihydro-1-(2-dimethylaminoethyl)-2H-benzimidazol-2-one hydrochloride], the “Pharmacological activity: % increase” value in assay [2] was 27.9 ± 6.2%.
On the same count and under the same terms, under `CN(C)CCn1c(=O)[nH]c2ccc(Cl)cc21.Cl` [11(4), 6-Chloro-1,3-dihydro-1-(2-dimethylaminoethyl)-2H-benzimidazol-2-one hydrochloride] stands 37.8 ± 13.2%; under `CN(C)CCn1c(=O)[nH]c2c(Br)cc(Br)cc21.Cl` [4(3), 4,6-Dibromo-1,3-dihydro-1-(2-dimethylaminoethyl)-2H-benzimidazol-2-one hydrochloride], 32.3 ± 7.0%.

Source of the values: US5162318A, “Benzimidazolinone derivatives” (Yamanouchi Pharmaceutical Co., Ltd., priority 1990, dated 1992).
